Assay results published in ChEMBL document CHEMBL3991601, “The target landscape of clinical kinase drugs” (Science, 2017).
Active and inactive are the calls of the source.

Assays:
[1] = molecular target: T1, Cyclin-G-associated kinase (Homo sapiens, UniProt O14976)
T1 sequence (O14976 whole entry): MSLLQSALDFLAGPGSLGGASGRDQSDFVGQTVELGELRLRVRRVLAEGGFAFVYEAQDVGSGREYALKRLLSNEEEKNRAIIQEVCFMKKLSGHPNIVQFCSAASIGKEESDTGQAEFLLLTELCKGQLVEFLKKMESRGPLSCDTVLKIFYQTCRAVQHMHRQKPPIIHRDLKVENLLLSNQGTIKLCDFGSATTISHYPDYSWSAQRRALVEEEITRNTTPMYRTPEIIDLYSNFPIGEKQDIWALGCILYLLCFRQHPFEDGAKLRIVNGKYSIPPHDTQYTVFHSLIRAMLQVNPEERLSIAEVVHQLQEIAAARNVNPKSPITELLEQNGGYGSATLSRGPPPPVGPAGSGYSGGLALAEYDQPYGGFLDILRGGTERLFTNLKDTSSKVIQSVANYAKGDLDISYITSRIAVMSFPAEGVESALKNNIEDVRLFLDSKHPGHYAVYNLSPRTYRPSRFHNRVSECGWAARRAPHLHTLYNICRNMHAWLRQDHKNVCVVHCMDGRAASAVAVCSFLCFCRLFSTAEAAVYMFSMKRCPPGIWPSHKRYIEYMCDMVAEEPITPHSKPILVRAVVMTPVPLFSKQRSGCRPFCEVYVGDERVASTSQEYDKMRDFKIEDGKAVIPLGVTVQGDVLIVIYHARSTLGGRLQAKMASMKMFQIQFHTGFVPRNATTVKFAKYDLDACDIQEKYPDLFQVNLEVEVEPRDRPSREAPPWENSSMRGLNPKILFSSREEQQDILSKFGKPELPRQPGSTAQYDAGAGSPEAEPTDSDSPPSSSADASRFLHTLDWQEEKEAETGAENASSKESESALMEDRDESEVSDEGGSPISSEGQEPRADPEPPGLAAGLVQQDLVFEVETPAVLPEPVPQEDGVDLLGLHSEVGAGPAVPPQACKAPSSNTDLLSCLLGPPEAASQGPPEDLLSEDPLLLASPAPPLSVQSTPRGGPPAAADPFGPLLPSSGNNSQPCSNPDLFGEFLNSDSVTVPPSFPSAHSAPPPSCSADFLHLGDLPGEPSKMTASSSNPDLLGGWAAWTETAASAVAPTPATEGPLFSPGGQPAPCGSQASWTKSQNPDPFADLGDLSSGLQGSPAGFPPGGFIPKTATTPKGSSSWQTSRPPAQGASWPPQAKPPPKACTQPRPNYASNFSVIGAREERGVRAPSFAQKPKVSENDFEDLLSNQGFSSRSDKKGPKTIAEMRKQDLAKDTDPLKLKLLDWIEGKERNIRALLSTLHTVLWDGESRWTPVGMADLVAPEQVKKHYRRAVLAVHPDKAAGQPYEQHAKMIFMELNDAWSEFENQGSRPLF

[2] = molecular target: T2, cGMP-dependent protein kinase 1 (Homo sapiens, UniProt Q13976)
T2 sequence (Q13976 whole entry): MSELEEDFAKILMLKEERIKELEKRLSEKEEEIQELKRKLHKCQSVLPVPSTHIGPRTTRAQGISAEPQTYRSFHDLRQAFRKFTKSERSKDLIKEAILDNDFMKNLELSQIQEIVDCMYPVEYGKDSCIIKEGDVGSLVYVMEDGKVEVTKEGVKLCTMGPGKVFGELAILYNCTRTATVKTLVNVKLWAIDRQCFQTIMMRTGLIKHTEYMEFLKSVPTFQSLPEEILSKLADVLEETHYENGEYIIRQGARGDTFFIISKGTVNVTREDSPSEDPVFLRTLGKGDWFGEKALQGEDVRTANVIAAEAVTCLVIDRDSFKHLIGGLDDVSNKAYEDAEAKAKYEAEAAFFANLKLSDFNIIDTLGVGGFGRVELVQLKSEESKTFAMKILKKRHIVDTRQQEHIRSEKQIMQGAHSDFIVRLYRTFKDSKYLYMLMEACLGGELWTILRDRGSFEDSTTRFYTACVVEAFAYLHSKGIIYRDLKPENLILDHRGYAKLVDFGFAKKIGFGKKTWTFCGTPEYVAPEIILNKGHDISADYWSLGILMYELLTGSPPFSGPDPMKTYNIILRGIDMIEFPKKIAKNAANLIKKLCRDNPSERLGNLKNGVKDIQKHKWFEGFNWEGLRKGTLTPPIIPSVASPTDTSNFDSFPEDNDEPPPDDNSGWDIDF

[3] = molecular target: cAMP-dependent protein kinase catalytic subunit gamma (Homo sapiens, UniProt P22612)
Sequence of cAMP-dependent protein kinase catalytic subunit gamma (P22612 whole entry): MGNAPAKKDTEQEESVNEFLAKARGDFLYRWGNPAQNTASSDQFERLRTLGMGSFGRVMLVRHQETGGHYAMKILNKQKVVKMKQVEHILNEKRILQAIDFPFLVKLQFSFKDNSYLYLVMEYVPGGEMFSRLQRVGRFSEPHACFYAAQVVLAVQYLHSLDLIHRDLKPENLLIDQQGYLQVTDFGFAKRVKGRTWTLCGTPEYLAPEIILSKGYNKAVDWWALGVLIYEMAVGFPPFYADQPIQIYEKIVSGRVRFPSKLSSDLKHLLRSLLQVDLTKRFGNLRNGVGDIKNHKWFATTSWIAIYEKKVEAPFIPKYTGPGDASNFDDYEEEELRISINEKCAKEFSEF

[4] = molecular target: Mitotic checkpoint serine/threonine-protein kinase BUB1 (Homo sapiens, UniProt O43683)
Sequence of Mitotic checkpoint serine/threonine-protein kinase BUB1 (O43683 whole entry): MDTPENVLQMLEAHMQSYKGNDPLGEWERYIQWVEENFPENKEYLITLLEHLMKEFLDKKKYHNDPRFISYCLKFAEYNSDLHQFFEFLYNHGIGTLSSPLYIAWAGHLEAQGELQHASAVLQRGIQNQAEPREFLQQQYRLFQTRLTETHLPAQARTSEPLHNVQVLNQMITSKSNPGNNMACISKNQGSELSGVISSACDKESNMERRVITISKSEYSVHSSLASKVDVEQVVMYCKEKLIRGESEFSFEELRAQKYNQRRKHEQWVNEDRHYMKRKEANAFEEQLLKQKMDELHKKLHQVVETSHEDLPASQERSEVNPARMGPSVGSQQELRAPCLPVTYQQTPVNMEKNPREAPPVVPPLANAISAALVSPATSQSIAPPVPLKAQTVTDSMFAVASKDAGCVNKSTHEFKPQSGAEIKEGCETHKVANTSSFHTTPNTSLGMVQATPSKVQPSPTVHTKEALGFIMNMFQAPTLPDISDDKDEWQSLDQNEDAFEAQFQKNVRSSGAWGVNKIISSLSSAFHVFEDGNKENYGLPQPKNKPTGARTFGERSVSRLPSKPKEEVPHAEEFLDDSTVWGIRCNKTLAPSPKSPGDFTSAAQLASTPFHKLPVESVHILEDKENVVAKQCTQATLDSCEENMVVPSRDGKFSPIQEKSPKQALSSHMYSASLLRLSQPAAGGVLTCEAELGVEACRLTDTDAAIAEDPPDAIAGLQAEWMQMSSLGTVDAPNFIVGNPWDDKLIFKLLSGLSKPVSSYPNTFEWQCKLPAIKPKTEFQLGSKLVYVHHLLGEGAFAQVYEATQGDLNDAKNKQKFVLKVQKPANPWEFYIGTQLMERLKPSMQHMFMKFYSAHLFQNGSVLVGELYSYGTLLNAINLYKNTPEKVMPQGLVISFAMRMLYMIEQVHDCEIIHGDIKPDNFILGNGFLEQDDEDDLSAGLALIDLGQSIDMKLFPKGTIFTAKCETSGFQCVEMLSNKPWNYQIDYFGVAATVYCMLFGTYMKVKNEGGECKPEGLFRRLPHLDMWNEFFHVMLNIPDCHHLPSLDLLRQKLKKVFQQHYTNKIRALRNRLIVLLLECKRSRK

[5] = molecular target: Insulin-like growth factor 1 receptor (Homo sapiens, UniProt P08069)
Sequence of Insulin-like growth factor 1 receptor (P08069 31-736 limits assumed): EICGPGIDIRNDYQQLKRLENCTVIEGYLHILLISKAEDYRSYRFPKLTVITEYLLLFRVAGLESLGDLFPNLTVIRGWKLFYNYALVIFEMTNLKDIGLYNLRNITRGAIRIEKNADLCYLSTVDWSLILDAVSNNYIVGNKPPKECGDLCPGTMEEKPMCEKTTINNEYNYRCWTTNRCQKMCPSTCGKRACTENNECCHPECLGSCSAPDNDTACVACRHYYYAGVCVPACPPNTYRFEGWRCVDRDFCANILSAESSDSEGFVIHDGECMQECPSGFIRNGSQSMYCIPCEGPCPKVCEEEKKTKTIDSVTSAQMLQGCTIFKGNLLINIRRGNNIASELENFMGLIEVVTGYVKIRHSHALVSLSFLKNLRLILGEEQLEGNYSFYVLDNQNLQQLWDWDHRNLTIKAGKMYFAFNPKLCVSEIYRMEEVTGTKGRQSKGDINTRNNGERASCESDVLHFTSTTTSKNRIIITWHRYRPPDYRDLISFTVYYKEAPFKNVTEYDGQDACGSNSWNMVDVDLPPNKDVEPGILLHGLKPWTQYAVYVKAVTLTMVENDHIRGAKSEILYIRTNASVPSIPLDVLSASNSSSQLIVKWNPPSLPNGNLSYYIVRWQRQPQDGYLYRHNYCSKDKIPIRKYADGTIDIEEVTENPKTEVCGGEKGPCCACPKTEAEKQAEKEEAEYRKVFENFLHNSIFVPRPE
Sequence of Insulin-like growth factor 1 receptor (P08069 741-1367 limits assumed): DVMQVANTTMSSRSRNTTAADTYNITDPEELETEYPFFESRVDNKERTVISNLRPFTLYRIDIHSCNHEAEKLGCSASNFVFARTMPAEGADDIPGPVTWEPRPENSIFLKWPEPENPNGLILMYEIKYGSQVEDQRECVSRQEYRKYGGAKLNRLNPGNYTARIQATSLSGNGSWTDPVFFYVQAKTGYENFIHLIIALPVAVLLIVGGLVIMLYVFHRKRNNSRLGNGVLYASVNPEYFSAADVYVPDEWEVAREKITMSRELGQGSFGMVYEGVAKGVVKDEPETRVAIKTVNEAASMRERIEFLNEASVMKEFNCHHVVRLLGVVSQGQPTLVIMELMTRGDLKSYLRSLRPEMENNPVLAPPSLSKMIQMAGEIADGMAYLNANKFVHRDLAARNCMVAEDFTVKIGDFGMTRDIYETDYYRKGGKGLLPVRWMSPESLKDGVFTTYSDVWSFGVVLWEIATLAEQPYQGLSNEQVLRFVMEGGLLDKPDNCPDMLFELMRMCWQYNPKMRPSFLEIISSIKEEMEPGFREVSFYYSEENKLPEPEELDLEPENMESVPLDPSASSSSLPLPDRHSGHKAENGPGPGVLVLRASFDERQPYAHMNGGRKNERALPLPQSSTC

[6] = molecular target: T3, Signal recognition particle receptor subunit alpha (Homo sapiens, UniProt P08240)
T3 sequence (P08240 whole entry): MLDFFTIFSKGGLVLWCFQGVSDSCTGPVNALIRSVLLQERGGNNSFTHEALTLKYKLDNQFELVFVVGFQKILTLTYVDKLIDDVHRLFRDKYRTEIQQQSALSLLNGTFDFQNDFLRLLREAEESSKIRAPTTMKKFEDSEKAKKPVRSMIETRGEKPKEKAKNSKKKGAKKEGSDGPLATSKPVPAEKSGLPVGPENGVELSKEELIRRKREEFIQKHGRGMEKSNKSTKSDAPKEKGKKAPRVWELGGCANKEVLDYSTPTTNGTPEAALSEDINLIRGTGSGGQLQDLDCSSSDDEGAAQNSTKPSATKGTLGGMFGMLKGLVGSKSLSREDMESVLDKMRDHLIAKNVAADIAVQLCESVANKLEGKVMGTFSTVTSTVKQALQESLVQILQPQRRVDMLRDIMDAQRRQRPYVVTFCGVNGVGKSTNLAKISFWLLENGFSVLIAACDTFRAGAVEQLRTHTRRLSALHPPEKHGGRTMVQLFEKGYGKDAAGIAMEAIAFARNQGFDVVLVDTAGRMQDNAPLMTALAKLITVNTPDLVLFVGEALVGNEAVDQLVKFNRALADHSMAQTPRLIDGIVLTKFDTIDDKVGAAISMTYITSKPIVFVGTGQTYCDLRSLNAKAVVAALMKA

[7] = molecular target: Dual specificity protein kinase CLK2 (Homo sapiens, UniProt P49760)
Sequence of Dual specificity protein kinase CLK2 (P49760 whole entry): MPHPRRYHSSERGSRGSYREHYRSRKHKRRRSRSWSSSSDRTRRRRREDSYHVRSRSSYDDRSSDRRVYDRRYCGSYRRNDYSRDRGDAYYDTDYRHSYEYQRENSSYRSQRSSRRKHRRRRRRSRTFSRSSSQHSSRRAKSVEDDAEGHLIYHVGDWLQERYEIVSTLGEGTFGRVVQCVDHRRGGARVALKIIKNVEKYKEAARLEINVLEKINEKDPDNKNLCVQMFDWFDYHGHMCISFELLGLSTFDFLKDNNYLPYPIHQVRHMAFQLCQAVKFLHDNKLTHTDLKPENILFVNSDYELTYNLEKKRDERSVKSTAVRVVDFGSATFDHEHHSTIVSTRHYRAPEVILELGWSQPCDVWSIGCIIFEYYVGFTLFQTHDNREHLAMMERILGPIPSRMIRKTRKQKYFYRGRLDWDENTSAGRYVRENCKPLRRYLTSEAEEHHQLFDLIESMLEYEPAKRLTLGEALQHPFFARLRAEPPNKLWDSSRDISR
Note: in the data inactive means no Kd found up to 30 µM.

Structure (SMILES) | Kd [1] | Kd [2] | Kd [3] | Kd [4] | Kd [5] | Kd [6] | Kd [7]
CC(=O)c1cnc2ccc(-c3cc(Cl)c(O)c(Cl)c3)nc2c1N[C@H]1CC[C@H](CN(C)C)CC1 | 0.005 µM (active) | > 30 µM (inactive) | > 30 µM (inactive) | > 30 µM (inactive) | > 30 µM (inactive) | > 30 µM (inactive) | > 30 µM (inactive)
Cc1nc2cc(-c3nn(C(C)C)c4ncnc(N)c34)ccc2o1 | > 30 µM (inactive) | > 30 µM (inactive) |  | > 30 µM (inactive) | > 30 µM (inactive) | > 30 µM (inactive) | > 30 µM (inactive)
COCc1c(-c2ccc(NC(=O)Nc3cc(C(F)(F)F)ccc3F)c(F)c2)c2c(N)ncnn2c1CN1CCOCC1 | > 30 µM (inactive) | > 30 µM (inactive) | > 30 µM (inactive) | > 30 µM (inactive) | > 30 µM (inactive) | > 30 µM (inactive) | > 30 µM (inactive)
Cc1nc(NC(=O)N2CCC[C@H]2C(N)=O)sc1-c1ccnc(C(C)(C)C(F)(F)F)c1 [ALPELISIB] | 4.97 µM (active) | > 30 µM (inactive) | 1.99 µM (active) |  | > 30 µM (inactive) | > 30 µM (inactive) | > 30 µM (inactive)
NC(=O)Nc1cc(-c2cccc(F)c2)sc1C(=O)N[C@H]1CCCNC1 [AZD-7762] | 0.202 µM (active) | > 30 µM (inactive) | > 30 µM (inactive) |  | > 30 µM (inactive) | > 30 µM (inactive) | > 30 µM (inactive)
Cc1nc2cc(-n3ncc(C(=O)c4cc5ccccc5[nH]4)c3N)ccc2[nH]1 [FGFR INHIBITOR DEBIO 1347] | > 30 µM (inactive) | > 30 µM (inactive) |  | > 30 µM (inactive) | > 30 µM (inactive) | > 30 µM (inactive) | > 30 µM (inactive)
CNC(=O)c1nn(C)c2c1C(C)(C)Cc1cnc(Nc3ccc(N4CCN(C)CC4)cc3)nc1-2 [MILCICLIB] | 0.003 µM (active) | > 30 µM (inactive) | > 30 µM (inactive) |  | > 30 µM (inactive) | > 30 µM (inactive) | > 30 µM (inactive)
COc1ncc(-c2ccc3nccc(-c4ccnnc4)c3c2)cc1NS(=O)(=O)c1ccc(F)cc1F [OMIPALISIB] | > 30 µM (inactive) | > 30 µM (inactive) | > 30 µM (inactive) |  | > 30 µM (inactive) | > 30 µM (inactive) | > 30 µM (inactive)
CCOc1cc2ncc(C#N)c(Nc3ccc(F)c(Cl)c3)c2cc1NC(=O)/C=C/CN(C)C [PELITINIB] | 0.117 µM (active) | > 30 µM (inactive) |  | > 30 µM (inactive) | > 30 µM (inactive) |  | > 30 µM (inactive)
N#CC1(c2ccc(NC(=O)c3cccnc3NCc3ccncc3)cc2)CCCC1 [RIVOCERANIB] | > 30 µM (inactive) | > 30 µM (inactive) | > 30 µM (inactive) | > 30 µM (inactive) | > 30 µM (inactive) |  | > 30 µM (inactive)
CN1CCN(CCOc2cc(OC3CCOCC3)c3c(Nc4c(Cl)ccc5c4OCO5)ncnc3c2)CC1 [SARACATINIB] |  | > 30 µM (inactive) | > 30 µM (inactive) | > 30 µM (inactive) | > 30 µM (inactive) | > 30 µM (inactive) | > 30 µM (inactive)
CO[C@H]1C[C@@H]2CC[C@@H](C)[C@@](O)(O2)C(=O)C(=O)N2CCCC[C@H]2C(=O)O[C@H]([C@H](C)C[C@@H]2CC[C@@H](O)[C@H](OC)C2)CC(=O)[C@H](C)/C=C(\C)[C@@H](O)[C@@H](OC)C(=O)[C@H](C)C[C@H](C)/C=C/C=C/C=C/1C [SIROLIMUS] | > 30 µM (inactive) | > 30 µM (inactive) |  | > 30 µM (inactive) | > 30 µM (inactive) | > 30 µM (inactive) | > 30 µM (inactive)
O=C(Cc1ccc(-c2ccc(OCCN3CCOCC3)cc2)cn1)NCc1ccccc1 [TIRBANIBULIN] | > 30 µM (inactive) | > 30 µM (inactive) |  | > 30 µM (inactive) | > 30 µM (inactive) | > 30 µM (inactive) | > 30 µM (inactive)
O=C1NC(=O)[C@@H](c2cn3c4c(cccc24)CCC3)[C@@H]1c1c[nH]c2ccccc12 [TIVANTINIB] | > 30 µM (inactive) | > 30 µM (inactive) |  | > 30 µM (inactive) | > 30 µM (inactive) | > 30 µM (inactive) | > 30 µM (inactive)
C[C@@H](NC(=O)c1ncnc(N)c1Cl)c1ncc(C(=O)Nc2cc(C(F)(F)F)c(Cl)cn2)s1 [TOVORAFENIB] | > 30 µM (inactive) | > 30 µM (inactive) | > 30 µM (inactive) | > 30 µM (inactive) | > 30 µM (inactive) |  | > 30 µM (inactive)

Other lines, results leading:

Kd [1] | Kd [2] | Kd [3] | Kd [4] | Kd [5] | Kd [6] | Kd [7] | Structure (SMILES)
 | > 30 µM (inactive) | 0.003 µM (active) | 0.094 µM (active) | > 30 µM (inactive) | > 30 µM (inactive) | > 30 µM (inactive) | O=C(Nc1c[nH]nc1-c1nc2cc(CN3CCOCC3)ccc2[nH]1)NC1CC1 [AT-9283]
> 30 µM (inactive) | > 30 µM (inactive) | > 30 µM (inactive) |  | > 30 µM (inactive) | > 30 µM (inactive) | > 30 µM (inactive) | Cc1cc(C(=O)NOCCO)c(Nc2ccc(I)cc2F)n(C)c1=O [AZD-8330]
> 30 µM (inactive) | > 30 µM (inactive) |  | > 30 µM (inactive) | > 30 µM (inactive) | > 30 µM (inactive) | > 30 µM (inactive) | COc1cc2ncnc(Oc3cccc(NC(=O)Nc4cc(C(C)(C)C(F)(F)F)on4)c3)c2cc1OC [CEP-32496]
 | > 30 µM (inactive) |  | > 30 µM (inactive) | > 30 µM (inactive) |  | > 30 µM (inactive) | CCn1cc(-c2ccnc3[nH]c(-c4cccc(CN(C)C)c4)cc23)c(-c2ccc(NC(=O)N(C)C)cc2)n1 [GSK-1070916]
> 30 µM (inactive) | > 30 µM (inactive) | > 30 µM (inactive) | > 30 µM (inactive) |  | > 30 µM (inactive) | > 30 µM (inactive) | CC(C)c1cc(CNc2nc(Nc3cc(C4CC4)[nH]n3)cc(N3CCN(C)CC3)n2)on1 [XL-228]
